Structures can show the parent of a compound that is named as a salt.
test system: not given; details: single dose of two 100 mg minocycline HCl tablets, adult humans; cited from earlier work

SMILES	average minocycline serum level [µg/mL]
CN(C)c1ccc(O)c2c1C[C@H]1C[C@H]3[C@H](N(C)C)C(O)=C(C(N)=O)C(=O)[C@@]3(O)C(O)=C1C2=O [minocycline HCl]	2.24

test system: BALB/c 3T3 (CCL-163) cells; details: not given

SMILES	MPE	PIF 1	PIF 2	mean PIF2
CC1c2ccc(N)c(O)c2C(=O)C2=C(O)C3(O)C(=O)C(C(N)=O)=C(O)CC3C(O)C21 (stereo not shown) [COL 805, 9-amino-4-dedimethylaminodoxycycline]	0.022	1.0		
CN(C)CC(=O)Nc1ccc2c(c1O)C(=O)C1=C(O)C3(O)C(=O)C(C(N)=O)=C(O)CC3CC1C2 (stereo not shown) [COL 309, 9-dimethylaminoacetamido-6-demethyl-6-deoxy-4-dedimethylaminotetracycline]	0.170	5.17	12.87	
NC(=O)C1=C(O)CC2CC3Cc4ccc(N)c(O)c4C(=O)C3=C(O)C2(O)C1=O (stereo not shown) [COL 308, 9-amino-6-demethyl-6-deoxy-4-dedimethylaminotetracycline]	0.015	1.0		
O=C(NCN1CCCCC1)C1=C(O)CC2CC3Cc4cccc(O)c4C(=O)C3=C(O)C2(O)C1=O (stereo not shown) [COL 313, 2-CONHCH2-piperidin-1-yl-6-demethyl-6-deoxy-4-dedimethylaminotetracycline]	0.462	80.27	58.22	
CN(C)c1ccc2c(c1O)C(=O)C1=C(O)C3(O)C(=O)C(C(N)=O)=C(O)CC3CC1C2 (stereo not shown) [COL 306, 9-dimethylamino-6-demethyl-6-deoxy-4-dedimethylaminotetracycline]	0.038	1.64	1.56	
O=C(NCN1CCNCC1)C1=C(O)CC2CC3Cc4cccc(O)c4C(=O)C3=C(O)C2(O)C1=O (stereo not shown) [COL 315, 2-CONHCH2-piperazin-1-yl-6-demethyl-6-deoxy-4-dedimethylaminotetracycline]	0.276	15.8	35.30	
CC(=O)Nc1ccc2c(c1O)C(=O)C1=C(O)C3(O)C(=O)C(C(N)=O)=C(O)CC3C(O)C1C2C (stereo not shown) [COL 801, 9-acetamido-4-dedimethylaminodoxycycline]	−0.001	1.0		
O=C(NCN1CCCC1)C1=C(O)CC2CC3Cc4cccc(O)c4C(=O)C3=C(O)C2(O)C1=O (stereo not shown) [COL 312, 2-CONHCH2-pyrrolidin-1-yl-6-demethyl-6-deoxy-4-dedimethylaminotetracycline]	0.442	62.67	75.11	
NC(=O)C1=C(O)CC2CC3Cc4ccc([N+](=O)[O-])c(O)c4C(=O)C3=C(O)C2(O)C1=O (stereo not shown) [COL 303, 9-nitro-6-demethyl-6-deoxy-4-dedimethylaminotetracycline]	0.309	5.27	13.82	
CC1c2cccc(O)c2C(=O)C2=C(O)C3(O)C(=O)C(C(=O)NCN4CCNCC4)=C(O)CC3C(O)C21 (stereo not shown) [COL 809, 2-CONHCH2-piperazin-1-yl-4-dedimethylaminodoxycycline]	0.420			
CC1(O)c2cccc(O)c2C(=O)C2=C(O)C3(O)C(=O)C(C(N)=O)=C(O)C(O)C3CC21 (stereo not shown) [COL 6, 4-hydroxy-4-dedimethylaminotetracycline]	0.155			
CN(C)c1ccc(O)c2c1CC1CC3CC(O)=C(C(N)=O)C(=O)C3(O)C(O)=C1C2=O (stereo not shown) [COL 10, 4-dedimethylaminominocycline]	0.099	1.82	2.04	2.04
CC1c2cccc(O)c2C(=O)C2=C(O)C3(O)C(=O)C(C(N)=O)=C(O)CC3C(O)C21 (stereo not shown) [COL 8, 4-dedimethylaminodoxycycline]	0.703	165	82.61	
C[N+](C)(C)c1ccc(O)c2c1CC1CC3CC(O)=C(C(N)=O)C(=O)C3(O)C(O)=C1C2=O (stereo not shown) [COL 1001, 7-trimethylammonium-4-dedimethylaminosancycline]	0.025			
NC(=O)C1=C(O)C[C@@H]2C[C@@H]3Cc4cccc(O)c4C(=O)C3=C(O)[C@]2(O)C1=O [COL 3, 6-demethyl-6-deoxy-4-dedimethylaminotetracycline]	0.654	647	84.72	
CC1(O)c2c(Cl)ccc(O)c2C(=O)C2=C(O)C3(O)C(=O)C(C(N)=O)=C(O)CC3CC21 (stereo not shown) [COL 4, 7-chloro-4-dedimethylaminotetracycline]	0.570			

SMILES	MPE	PIF 1	PIF 2	mean PIF2
CN(C)C1C(=O)C(C#N)=C(O)C2(O)C(=O)C3=C(O)c4c(O)cccc4C(C)(O)C3CC12 (stereo not shown) [COL 2, tetracyclinonitrile]	0.005			
NC(=O)C1=C(O)CC2CC3Cc4c([N+](=O)[O-])ccc(O)c4C(=O)C3=C(O)C2(O)C1=O (stereo not shown) [COL 302, 7-nitro-6-demethyl-6-deoxy-4-dedimethylaminotetracycline]	0.378	23.16	23.32	
CN(C)c1cc([N+](=O)[O-])c(O)c2c1CC1CC3CC(O)=C(C(N)=O)C(=O)C3(O)C(O)=C1C2=O (stereo not shown) [COL 1002, 9-nitro-4-dedimethylaminominocycline]	0.040	1.0	1.35	1.35
CC1c2cccc(O)c2C(=O)C2=C(O)C3(O)C(=O)C(C(=O)NCN4CCCC4)=C(O)CC3C(O)C21 (stereo not shown) [COL 807, 2-CONHCH2-pyrrolidin-1-yl-4-dedimethylaminodoxycycline]	0.382	40.4		
O=C(NCN1CCOCC1)C1=C(O)CC2CC3Cc4cccc(O)c4C(=O)C3=C(O)C2(O)C1=O (stereo not shown) [COL 314, 2-CONHCH2-morpholin-1-yl-6-demetlyl-6-deoxy-4-dedimethylaminotetracycline]	0.475	41.1	89.48	
CCCCCCCCCCCCCCCC(=O)Nc1ccc2c(c1O)C(=O)C1=C(O)C3(O)C(=O)C(C(N)=O)=C(O)CC3CC1C2 (stereo not shown) [COL 311, 9-palmitamide-6-demethyl-6-deoxy-4-dedimethylaminotetracycline]	0.013	1.0		
CC1(O)c2cccc(O)c2C(=O)C2=C(O)C3C(=O)C(C(N)=O)=C(O)CC3CC21 (stereo not drawn) [COL 7, 4-dedimethylamino-12α-deoxytetracycline]	0.531			
CC1c2ccc([N+](=O)[O-])c(O)c2C(=O)C2=C(O)C3(O)C(=O)C(C(N)=O)=C(O)CC3C(O)C21 (stereo not shown) [COL 804, 9-nitro-4-dedimethylaminodoxycycline]	0.003	1.0		
CC(=O)Nc1ccc2c(c1O)C(=O)C1=C(O)C3(O)C(=O)C(C(N)=O)=C(O)CC3CC1C2 (stereo not shown) [COL 305, 9-acetamido-6-demethyl-6-deoxy-4-dedimethylaminotetracycline]	0.420			
CC1(O)c2cccc(O)c2C(=O)C2=C(O)C3(O)C(=O)C(C(N)=O)=C(O)CC3CC21 (stereo not shown) [COL 1, 4-dedimethylaminotetracycline]	0.460			
CC1c2ccc(NC(=O)CN(C)C)c(O)c2C(=O)C2=C(O)C3(O)C(=O)C(C(N)=O)=C(O)CC3C(O)C21 (stereo not shown) [COL 802, 9-dimethylaminoacetamido-4-dedimethylaminodoxycycline]	−0.123	1.0		
CCCCCCCCCCCCCCCC(=O)Nc1ccc2c(c1O)C(=O)C1=C(O)C3(O)C(=O)C(C(N)=O)=C(O)CC3C(O)C1C2C (stereo not shown) [COL 803, 9-palmitamide-4-dedimethylaminodoxycycline]	0.047			
CC1c2cccc(O)c2C(=O)C2=C(O)C3(O)C(=O)C(C(=O)NCN4CCCCC4)=C(O)CC3C(O)C21 (stereo not shown) [COL 808, 2-CONHCH2-piperidin-1-yl-4-dedimethylaminodoxycycline]	0.387	46.45		
NC(=O)C1=C(O)CC2CC3Cc4c(N)ccc(O)c4C(=O)C3=C(O)C2(O)C1=O (stereo not shown) [COL 307, 7-amino-6-demethyl-6-deoxy-4-dedimethylaminotetracycline]	0.056	1.17		
Cc1c2c(c(O)c3c(O)cccc13)C(=O)C1C(=O)C(C(N)=O)=C(O)CC1C2 (stereo not drawn) [COL 9, 4-de(dimethylamino)-12α-deoxyanhydrotetracycline]	0.546			

same assay, conditions: mouse

SMILES	MPE	PIF 2	PIF 1
CN(C)CCCN1c2ccccc2Sc2ccc(Cl)cc21 [Chlorpromazine, reference compound]	0.639	40.38	
CN(C)[C@@H]1C(O)=C(C(N)=O)C(=O)[C@@]2(O)C(O)=C3C(=O)c4c(O)cccc4[C@@](C)(O)[C@H]3C[C@@H]12 [Tetracycline, reference compound]	0.340		5.38
C[C@H]1c2cccc(O)c2C(=O)C2=C(O)[C@]3(O)C(=O)C(C(N)=O)=C(O)[C@@H](N(C)C)[C@@H]3[C@@H](O)[C@@H]21 [Doxycycline, 6α-deoxy-5-hydroxytetracycline, reference compound]	0.522	26.71	23.37

test system: not given; details: based on steady-state pharmacokinetics; cited from earlier work

SMILES	plasma antibiotic threshold level [µg/mL]
CN(C)[C@@H]1C(O)=C(C(N)=O)C(=O)[C@@]2(O)C(O)=C3C(=O)c4c(O)cccc4[C@@](C)(O)[C@H]3C[C@@H]12 [Tetracycline, reference compound]	0.5

test system: not given; details: 250 mg every six hours over a twenty-four hour period; cited from earlier work

SMILES	peak plasma concentration
CN(C)[C@@H]1C(O)=C(C(N)=O)C(=O)[C@@]2(O)C(O)=C3C(=O)c4c(O)cccc4[C@@](C)(O)[C@H]3C[C@@H]12 [tetracycline HCl]	approximately 3 μg/ml
